Data reported in ChEMBL document CHEMBL5291721, “A preclinical secondary pharmacology resource illuminates target-adverse drug reaction associations of marketed drugs” (Nat Commun, 2023).

Key:
Adenosine receptor A1 = target: T1, Adenosine receptor A1 (Homo sapiens, UniProt P30542)
T1 sequence (P30542 whole entry): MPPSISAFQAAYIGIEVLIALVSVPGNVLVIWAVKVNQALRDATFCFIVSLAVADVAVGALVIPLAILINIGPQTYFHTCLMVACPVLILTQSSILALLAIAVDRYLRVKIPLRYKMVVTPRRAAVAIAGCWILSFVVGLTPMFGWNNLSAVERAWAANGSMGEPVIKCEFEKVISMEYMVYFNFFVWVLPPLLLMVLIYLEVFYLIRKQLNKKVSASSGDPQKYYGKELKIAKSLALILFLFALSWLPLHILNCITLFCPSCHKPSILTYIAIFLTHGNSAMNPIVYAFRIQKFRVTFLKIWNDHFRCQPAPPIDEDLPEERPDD

[1] = target: T2, Alpha-2C adrenergic receptor (Homo sapiens, UniProt P18825); format: functional
T2 sequence (P18825 whole entry): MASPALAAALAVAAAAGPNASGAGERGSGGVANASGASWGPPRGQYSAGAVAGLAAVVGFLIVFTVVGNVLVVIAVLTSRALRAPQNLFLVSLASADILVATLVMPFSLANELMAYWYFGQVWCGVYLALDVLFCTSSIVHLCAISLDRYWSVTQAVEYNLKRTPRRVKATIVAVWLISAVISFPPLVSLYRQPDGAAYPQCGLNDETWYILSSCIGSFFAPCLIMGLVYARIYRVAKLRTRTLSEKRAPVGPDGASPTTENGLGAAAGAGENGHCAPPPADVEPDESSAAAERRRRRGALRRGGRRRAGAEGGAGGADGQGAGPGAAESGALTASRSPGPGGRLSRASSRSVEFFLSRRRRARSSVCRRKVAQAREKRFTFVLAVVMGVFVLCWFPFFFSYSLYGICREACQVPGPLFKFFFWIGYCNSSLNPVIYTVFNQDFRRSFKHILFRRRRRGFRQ

[2] = target: Beta-1 adrenergic receptor (Homo sapiens, UniProt P08588); format: functional
Vasopressin V2 receptor = Vasopressin V2 receptor (Homo sapiens, UniProt P30518)
[3] = target: Gamma-aminobutyric acid receptor subunit alpha-1 (Rattus norvegicus, UniProt P62813); format: functional
[4] = target: Glutamate receptor ionotropic, NMDA 1 (Rattus norvegicus, UniProt P35439)
Histamine H1 receptor = Histamine H1 receptor (Homo sapiens, UniProt P35367)
Histamine H2 receptor = Histamine H2 receptor (Homo sapiens, UniProt P25021); format: functional, cell-based
[5] = target: T3, 5-hydroxytryptamine receptor 2C (Homo sapiens, UniProt P28335)
T3 sequence (P28335 whole entry): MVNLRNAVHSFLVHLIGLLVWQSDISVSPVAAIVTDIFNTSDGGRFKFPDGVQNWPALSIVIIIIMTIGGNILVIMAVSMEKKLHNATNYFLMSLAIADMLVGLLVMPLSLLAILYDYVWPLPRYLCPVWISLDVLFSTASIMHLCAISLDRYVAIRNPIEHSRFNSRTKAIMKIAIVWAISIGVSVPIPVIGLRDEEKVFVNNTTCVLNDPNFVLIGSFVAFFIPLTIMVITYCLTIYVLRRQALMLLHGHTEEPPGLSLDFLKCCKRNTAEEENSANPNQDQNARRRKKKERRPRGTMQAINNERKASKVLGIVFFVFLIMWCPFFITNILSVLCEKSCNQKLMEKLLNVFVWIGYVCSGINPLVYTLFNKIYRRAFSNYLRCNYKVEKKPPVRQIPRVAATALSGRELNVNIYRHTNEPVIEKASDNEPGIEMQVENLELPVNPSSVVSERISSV

[6] = target: Voltage-gated inwardly rectifying potassium channel KCNH2 (Homo sapiens, UniProt Q12809); format: functional
Melanocortin receptor 3 = Melanocortin receptor 3 (Homo sapiens, UniProt P41968)
[7] = target: T4, Neuropeptide Y receptor type 1 (Homo sapiens, UniProt P25929); details: read-out: AC50
T4 sequence (P25929 whole entry): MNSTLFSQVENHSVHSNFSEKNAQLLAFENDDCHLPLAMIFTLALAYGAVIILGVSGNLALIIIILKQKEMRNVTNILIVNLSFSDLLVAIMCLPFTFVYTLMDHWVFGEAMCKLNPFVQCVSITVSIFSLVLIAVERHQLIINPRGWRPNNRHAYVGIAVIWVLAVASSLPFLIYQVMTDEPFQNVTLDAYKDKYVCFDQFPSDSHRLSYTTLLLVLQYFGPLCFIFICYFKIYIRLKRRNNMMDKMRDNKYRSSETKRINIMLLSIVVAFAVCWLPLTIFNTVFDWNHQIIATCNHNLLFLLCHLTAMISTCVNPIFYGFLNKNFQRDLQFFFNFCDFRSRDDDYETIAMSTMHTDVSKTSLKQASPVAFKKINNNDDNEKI

[8] = target: Delta-type opioid receptor (Homo sapiens, UniProt P41143)
[9] = target: T5, Prostaglandin G/H synthase 1 (Rattus norvegicus, UniProt Q63921); format: functional
T5 sequence (Q63921 whole entry): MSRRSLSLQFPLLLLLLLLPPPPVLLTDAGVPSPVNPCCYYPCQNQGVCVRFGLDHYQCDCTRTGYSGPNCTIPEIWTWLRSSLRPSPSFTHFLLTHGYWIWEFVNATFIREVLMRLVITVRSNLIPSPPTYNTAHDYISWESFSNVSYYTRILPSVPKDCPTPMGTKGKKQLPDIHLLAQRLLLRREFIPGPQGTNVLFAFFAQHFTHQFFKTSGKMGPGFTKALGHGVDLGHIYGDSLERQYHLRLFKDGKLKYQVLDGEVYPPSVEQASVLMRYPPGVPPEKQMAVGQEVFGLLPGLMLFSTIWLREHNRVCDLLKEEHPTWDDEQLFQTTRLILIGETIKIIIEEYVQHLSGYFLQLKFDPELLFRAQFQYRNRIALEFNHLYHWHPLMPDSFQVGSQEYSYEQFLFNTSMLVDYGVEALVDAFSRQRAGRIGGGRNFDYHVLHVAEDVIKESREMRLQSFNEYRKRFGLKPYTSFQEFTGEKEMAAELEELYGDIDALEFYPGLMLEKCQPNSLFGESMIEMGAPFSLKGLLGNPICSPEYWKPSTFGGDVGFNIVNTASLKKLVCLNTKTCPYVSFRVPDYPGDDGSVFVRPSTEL

D(3) dopamine receptor = D(3) dopamine receptor (Homo sapiens, UniProt P35462)
Histamine H3 receptor = Histamine H3 receptor (Homo sapiens, UniProt Q9Y5N1)
Note: assay procedure not described here.

Chain of Melanocortin receptor 3 (P41968 whole entry): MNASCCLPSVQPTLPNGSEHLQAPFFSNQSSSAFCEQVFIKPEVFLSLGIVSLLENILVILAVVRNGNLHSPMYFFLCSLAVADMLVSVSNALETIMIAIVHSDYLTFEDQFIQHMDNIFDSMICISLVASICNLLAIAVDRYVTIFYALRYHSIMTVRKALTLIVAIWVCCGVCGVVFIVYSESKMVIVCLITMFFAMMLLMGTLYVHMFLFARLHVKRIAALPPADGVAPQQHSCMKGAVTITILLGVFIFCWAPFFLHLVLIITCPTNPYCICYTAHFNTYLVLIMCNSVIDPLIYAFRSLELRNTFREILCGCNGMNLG
Chain of Gamma-aminobutyric acid receptor subunit alpha-1 (P62813 whole entry): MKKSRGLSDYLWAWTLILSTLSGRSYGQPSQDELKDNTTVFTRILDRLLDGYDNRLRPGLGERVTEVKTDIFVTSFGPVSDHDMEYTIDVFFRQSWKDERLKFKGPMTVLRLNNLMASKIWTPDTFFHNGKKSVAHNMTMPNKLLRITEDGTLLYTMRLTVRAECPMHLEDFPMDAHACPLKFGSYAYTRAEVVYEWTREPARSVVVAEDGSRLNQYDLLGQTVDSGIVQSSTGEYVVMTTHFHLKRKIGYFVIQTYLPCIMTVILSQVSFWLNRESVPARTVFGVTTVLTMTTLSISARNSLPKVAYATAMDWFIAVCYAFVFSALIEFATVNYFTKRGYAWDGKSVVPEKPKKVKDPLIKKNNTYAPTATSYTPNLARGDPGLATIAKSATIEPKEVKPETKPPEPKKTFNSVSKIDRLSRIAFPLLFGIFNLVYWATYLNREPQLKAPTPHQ
Chain of D(3) dopamine receptor (P35462 whole entry): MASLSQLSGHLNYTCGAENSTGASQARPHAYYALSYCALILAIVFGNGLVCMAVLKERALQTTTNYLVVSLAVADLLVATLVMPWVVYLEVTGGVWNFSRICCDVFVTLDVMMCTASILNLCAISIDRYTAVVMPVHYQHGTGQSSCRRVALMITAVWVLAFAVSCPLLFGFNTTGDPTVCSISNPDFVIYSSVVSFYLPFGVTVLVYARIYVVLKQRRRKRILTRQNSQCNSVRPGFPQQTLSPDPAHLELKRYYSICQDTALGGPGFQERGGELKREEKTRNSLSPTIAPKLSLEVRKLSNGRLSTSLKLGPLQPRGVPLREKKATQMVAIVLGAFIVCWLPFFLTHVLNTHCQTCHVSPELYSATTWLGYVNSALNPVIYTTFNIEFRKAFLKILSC
Chain of Vasopressin V2 receptor (P30518 whole entry): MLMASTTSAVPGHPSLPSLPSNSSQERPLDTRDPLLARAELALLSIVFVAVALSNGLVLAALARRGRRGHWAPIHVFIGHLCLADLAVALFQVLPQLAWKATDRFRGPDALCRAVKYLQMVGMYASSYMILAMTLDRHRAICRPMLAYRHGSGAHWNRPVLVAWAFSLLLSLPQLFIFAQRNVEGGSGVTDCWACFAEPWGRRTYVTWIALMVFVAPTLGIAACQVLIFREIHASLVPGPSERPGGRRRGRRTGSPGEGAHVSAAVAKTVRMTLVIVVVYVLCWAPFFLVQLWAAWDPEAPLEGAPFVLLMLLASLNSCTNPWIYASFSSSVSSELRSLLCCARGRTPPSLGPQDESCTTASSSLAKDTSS
Chain of Delta-type opioid receptor (P41143 whole entry): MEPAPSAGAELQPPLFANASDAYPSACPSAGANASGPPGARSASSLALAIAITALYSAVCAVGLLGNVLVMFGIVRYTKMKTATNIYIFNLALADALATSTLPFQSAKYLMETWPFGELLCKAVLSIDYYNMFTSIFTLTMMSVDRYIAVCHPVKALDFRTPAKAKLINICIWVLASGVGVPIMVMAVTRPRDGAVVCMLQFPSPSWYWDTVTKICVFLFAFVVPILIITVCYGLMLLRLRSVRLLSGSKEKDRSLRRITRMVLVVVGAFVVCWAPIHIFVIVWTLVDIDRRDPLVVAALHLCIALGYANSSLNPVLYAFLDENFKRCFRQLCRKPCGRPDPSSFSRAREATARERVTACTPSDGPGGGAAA
Chain of Histamine H1 receptor (P35367 whole entry): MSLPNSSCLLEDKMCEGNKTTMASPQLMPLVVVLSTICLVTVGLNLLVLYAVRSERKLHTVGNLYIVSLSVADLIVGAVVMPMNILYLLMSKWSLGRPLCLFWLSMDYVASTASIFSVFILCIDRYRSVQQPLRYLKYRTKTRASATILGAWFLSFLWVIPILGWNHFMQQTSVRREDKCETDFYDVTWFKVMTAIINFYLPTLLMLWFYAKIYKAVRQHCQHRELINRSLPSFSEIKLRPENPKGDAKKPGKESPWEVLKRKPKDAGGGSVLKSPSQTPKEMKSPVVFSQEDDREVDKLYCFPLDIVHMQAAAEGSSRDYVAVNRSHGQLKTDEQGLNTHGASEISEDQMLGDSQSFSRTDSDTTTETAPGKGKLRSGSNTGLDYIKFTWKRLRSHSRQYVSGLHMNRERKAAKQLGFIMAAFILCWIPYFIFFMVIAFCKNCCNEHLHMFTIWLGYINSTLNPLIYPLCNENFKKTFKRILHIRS
Chain of Beta-1 adrenergic receptor (P08588 whole entry): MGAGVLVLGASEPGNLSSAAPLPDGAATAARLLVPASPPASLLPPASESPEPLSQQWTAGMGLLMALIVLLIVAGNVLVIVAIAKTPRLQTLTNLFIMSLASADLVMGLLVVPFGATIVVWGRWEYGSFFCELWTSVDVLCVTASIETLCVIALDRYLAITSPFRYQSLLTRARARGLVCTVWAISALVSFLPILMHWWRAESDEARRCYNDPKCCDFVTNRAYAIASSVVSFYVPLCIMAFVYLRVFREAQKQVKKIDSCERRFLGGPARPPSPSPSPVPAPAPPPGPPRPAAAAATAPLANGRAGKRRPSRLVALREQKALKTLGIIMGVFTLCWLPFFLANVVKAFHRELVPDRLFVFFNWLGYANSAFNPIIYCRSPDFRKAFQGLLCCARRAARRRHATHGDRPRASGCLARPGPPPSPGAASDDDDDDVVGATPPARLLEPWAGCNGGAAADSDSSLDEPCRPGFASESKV
Chain of Histamine H2 receptor (P25021 whole entry): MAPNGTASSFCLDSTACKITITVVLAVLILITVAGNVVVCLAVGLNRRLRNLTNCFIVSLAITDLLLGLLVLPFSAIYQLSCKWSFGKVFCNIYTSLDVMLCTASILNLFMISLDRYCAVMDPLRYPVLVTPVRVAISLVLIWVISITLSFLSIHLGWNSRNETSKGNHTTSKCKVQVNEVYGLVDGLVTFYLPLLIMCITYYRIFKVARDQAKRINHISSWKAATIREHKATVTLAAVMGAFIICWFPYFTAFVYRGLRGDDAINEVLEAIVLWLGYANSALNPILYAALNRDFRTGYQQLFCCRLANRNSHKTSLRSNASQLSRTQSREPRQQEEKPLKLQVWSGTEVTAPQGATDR
Chain of Histamine H3 receptor (Q9Y5N1 whole entry): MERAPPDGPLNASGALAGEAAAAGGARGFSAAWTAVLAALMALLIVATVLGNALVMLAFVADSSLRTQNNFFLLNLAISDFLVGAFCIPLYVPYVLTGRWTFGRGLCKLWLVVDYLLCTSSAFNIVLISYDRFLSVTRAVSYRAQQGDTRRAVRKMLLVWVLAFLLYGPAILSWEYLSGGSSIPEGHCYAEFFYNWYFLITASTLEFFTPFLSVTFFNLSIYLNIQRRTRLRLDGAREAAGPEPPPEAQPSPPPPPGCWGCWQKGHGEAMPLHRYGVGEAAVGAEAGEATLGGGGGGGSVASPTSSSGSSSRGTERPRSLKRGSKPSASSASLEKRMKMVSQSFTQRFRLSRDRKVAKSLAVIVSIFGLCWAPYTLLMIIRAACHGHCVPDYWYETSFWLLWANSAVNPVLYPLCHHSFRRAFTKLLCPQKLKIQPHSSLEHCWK
Chain of Voltage-gated inwardly rectifying potassium channel KCNH2 (Q12809 whole entry): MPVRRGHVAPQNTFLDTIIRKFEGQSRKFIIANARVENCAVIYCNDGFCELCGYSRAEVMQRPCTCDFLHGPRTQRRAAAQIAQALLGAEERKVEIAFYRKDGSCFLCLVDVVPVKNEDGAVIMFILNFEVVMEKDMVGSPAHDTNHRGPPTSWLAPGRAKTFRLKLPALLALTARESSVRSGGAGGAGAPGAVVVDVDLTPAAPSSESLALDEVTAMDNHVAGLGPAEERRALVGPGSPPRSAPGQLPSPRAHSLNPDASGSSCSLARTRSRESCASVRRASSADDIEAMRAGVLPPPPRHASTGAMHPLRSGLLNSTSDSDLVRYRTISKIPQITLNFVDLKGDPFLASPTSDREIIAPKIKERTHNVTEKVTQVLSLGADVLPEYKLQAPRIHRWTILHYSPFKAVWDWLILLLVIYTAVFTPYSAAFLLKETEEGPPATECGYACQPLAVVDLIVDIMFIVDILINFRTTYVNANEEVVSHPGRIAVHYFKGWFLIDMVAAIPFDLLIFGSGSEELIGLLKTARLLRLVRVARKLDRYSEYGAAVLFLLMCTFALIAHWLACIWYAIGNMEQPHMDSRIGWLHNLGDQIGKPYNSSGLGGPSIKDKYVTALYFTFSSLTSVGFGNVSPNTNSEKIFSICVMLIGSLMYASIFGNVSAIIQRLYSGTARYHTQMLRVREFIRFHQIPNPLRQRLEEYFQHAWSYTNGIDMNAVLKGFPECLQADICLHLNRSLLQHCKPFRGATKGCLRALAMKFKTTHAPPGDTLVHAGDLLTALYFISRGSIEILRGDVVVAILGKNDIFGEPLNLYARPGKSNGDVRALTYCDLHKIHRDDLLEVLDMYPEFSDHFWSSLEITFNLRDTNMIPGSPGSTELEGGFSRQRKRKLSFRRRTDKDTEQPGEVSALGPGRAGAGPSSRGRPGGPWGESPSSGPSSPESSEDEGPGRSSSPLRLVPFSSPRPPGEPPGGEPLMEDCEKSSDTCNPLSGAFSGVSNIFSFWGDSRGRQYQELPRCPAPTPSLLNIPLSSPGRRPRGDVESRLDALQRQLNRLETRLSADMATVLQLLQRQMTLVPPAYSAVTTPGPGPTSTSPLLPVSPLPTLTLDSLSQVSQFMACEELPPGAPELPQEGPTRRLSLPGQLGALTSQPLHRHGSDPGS

SMILES	AC50 (Adenosine receptor A1) [µM]	AC50 [1] [µM]	AC50 [2] [µM]	AC50 (Vasopressin V2 receptor) [µM]	AC50 [3] [µM]	AC50 [4] [µM]	AC50 (Histamine H1 receptor) [µM]	AC50 (Histamine H2 receptor) [µM]	AC50 [5] [µM]	AC50 [6] [µM]	AC50 (Melanocortin receptor 3) [µM]	AC50 [7] [µM]	AC50 [8] [µM]	AC50 [9] [µM]	AC50 (D(3) dopamine receptor) [µM]	AC50 (Histamine H3 receptor) [µM]
CCOC(=O)O[C@]1(C(=O)OCCl)CC[C@H]2[C@@H]3CCC4=CC(=O)C=C[C@]4(C)[C@H]3[C@@H](O)C[C@@]21C [LOTEPREDNOL ETABONATE]	> 30	> 30	> 30	> 30	> 30	> 30	> 30	> 30	> 30	> 30	> 30	> 30	> 30	> 30	> 30	> 30
CCN(CC)CCN1C(=O)CN=C(c2ccccc2F)c2cc(Cl)ccc21 [FLURAZEPAM]	> 30	> 10	> 10	> 30	0.0512	> 10	> 10	> 30	> 30	0.896	> 30	> 30	> 30	> 30	8.4	> 10
CC(=O)SC[C@@H](C)C(=O)N1CCC[C@H]1C(=O)N[C@@H](Cc1ccccc1)C(=O)O	> 30	> 30	> 30	> 30	> 30	> 30	> 30	> 30	> 30	> 30	> 30	> 30	> 30	> 30	> 30	> 30
Oc1ccc2c(c1)[C@@]13CCCC[C@@]1(O)[C@@H](C2)N(CC1CCC1)CC3 [BUTORPHANOL]	> 30	> 30	> 30	> 30	> 30	> 30	> 30	> 30	> 30	12	> 30	> 30	0.18	> 30	> 30	> 30
CC1=C(C)C(=O)C(C(CCCCCC(=O)O)c2ccccc2)=C(C)C1=O (stereo not drawn) [SERATRODAST]	> 30	> 30	> 30	> 30	> 30	> 30	> 30	> 30	> 30	> 30	> 30	> 30	> 30	1.14	> 30	> 30
C#CCOc1ccc(N)cc1C(=O)NCCCC [PARSALMIDE]	> 30	> 30	> 30	> 30	> 30	> 30	> 30	> 30	> 30	> 30	> 30	> 30	> 30	2.3	> 30	> 30
CCN(CC)C(=O)Nc1ccc(OCC(O)CNC(C)(C)C)c(C(C)=O)c1 (stereo not drawn) [CELIPROLOL]	> 30	> 30	0.076	> 30	> 30	> 30	> 30	> 30	> 30	17	> 30	> 30	> 30	> 30	> 30	> 30
COc1ccc2nc3cc(Cl)ccc3c(Nc3cc(CN4CCCC4)c(O)c(CN4CCCC4)c3)c2n1 [PYRONARIDINE]	> 30	21	> 30	18	> 30	> 30	21	> 30	> 30	0.28	> 30	> 30	> 30	> 30	21	> 30
